PubChem BioAssay (NCI)
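Growth conditions: 96-well plates. Treatment: test compound, 48 hours, 5 concentrations. Analysis: linear interpolation between bracketing concentrations; unreached endpoints set to highest concentration. TGI marks complete inhibition of growth.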

How the values were obtained:
Experiment in all cases: NCI anticancer screen, dose series, 48 h
MOLT-4 leukemia = test system: MOLT-4 leukemia
NCI-H226 lung = test system: NCI-H226 lung
NCI/ADR-RES ovarian = test system: NCI/ADR-RES ovarian
SK-MEL-5 melanoma = test system: SK-MEL-5 melanoma
T-47D breast = test system: T-47D breast
TK-10 renal = test system: TK-10 renal
NCI-H522 lung = test system: NCI-H522 lung

SMILES | TGI (MOLT-4 leukemia) [µM] | TGI (NCI-H226 lung) [µM] | TGI (NCI/ADR-RES ovarian) [µM] | TGI (SK-MEL-5 melanoma) [µM] | TGI (T-47D breast) [µM] | TGI (TK-10 renal) [µM] | TGI (NCI-H522 lung) [µM]
CCC(=O)N/S(=N/S(=O)(=O)c1ccccc1)C(Cl)(Cl)Cl (stereo not given) | > 100 | > 100 | > 100 | > 100 | > 100 | > 100 | –
CC(C)=NOC(=O)CNC(=O)C(Cc1ccccc1)NC(=O)C(C)NC(=O)OC(C)(C)C (stereo not given) | > 100 | > 100 | > 100 | > 100 | > 100 | > 100 | > 100
COc1ccc2c(O)c(S(=O)(=O)c3ccc(C)cc3)c(=O)oc2c1OC | > 100 | > 100 | > 100 | > 100 | > 100 | > 100 | > 100
Clc1ccc(-c2cc(-c3cc4cc(Br)ccc4nc3Cl)on2)cc1 | 47.3 | 27.4 | 37.9 | 19.6 | > 50 | – | 21.8
NC(=O)CSc1c2cc(O)ccc2nc2ccc(O)cc12 | > 10 | > 10 | > 10 | > 10 | > 10 | > 10 | > 10
O=C(N=Nc1ccc(Cl)cc1Cl)NNc1ccc(Cl)cc1Cl | 50.5 | 48.2 | – | 29.2 | 77.3 | 55.5 | 41.9
Cc1nc2ccc(S(=O)(=O)NS(=O)(=O)c3ccc(-c4ccccc4)cc3)cc2c(=O)n1NS(=O)(=O)c1ccc(-c2ccccc2)cc1 | > 100 | > 100 | > 100 | > 100 | > 100 | > 100 | > 100
O=[N+]([O-])c1ccc(C2ON=C(c3ccccc3)N2C23CC4CC(CC(C4)C2)C3)cc1 (stereo not given) | > 10 | > 10 | > 10 | > 10 | > 10 | > 10 | > 10
COC1(C2c3ccccc3CCN2C(=O)OC(C)(C)C)C(=O)C(c2ccccc2)=C1N(C)C (stereo not given) | > 100 | 59.6 | 57.9 | 58.9 | > 100 | > 100 | 56.8
Cc1ccc(/C=C2\NC(=S)NC2=O)cc1 | > 100 | > 100 | > 100 | > 100 | > 100 | > 100 | > 100
O=C(c1cccs1)c1nccc2c1cnc1ccccc12 | > 100 | > 100 | > 100 | > 100 | > 100 | > 100 | –
Nc1ccc(-c2nc3ccc(F)cc3s2)cc1Cl | > 100 | > 100 | > 100 | > 100 | – | > 100 | > 100
CCCCCCCCC/C=C1/CC(CO)(COC(=O)CC(C(C)C)C(C)C)OC1=O (stereo not given) | 35.4 | 21.5 | 28.1 | 21.9 | 19 | 15.1 | 23.6
Oc1[nH]c2ccccc2c1C1=Nc2ccccc2/C1=N\OCCOC1OCC(O)C(O)C1O (stereo not given) | > 100 | > 100 | > 100 | > 100 | > 100 | > 100 | > 100
COC(=O)C1Cc2c(OC)ccc(OC)c2C(O)C1C(=O)OC (stereo not given) | > 100 | > 100 | > 100 | > 100 | > 100 | > 100 | > 100
COc1ccc2oc(S(=O)(=O)N3CC(CCl)c4ccc(N)cc43)cc2c1 (stereo not given) | > 54.5 | 1.77 | > 72 | 4.95 | > 100 | > 100 | > 67.6
COC(=O)c1c(CC(Cc2ccc3c(c2)CCCC3)C(=O)O)ccc2c1CCCC2 (stereo not given) | > 100 | > 100 | 34.4 | > 100 | > 100 | > 100 | 34.1
COc1ccc(/C=C2\C[C@H]3[C@@H]4CCC5=C/C(=N/O)CC[C@]5(C)[C@H]4CC[C@]3(C)\C2=N\O)cc1 | > 100 | 95.4 | > 100 | 25.9 | > 100 | > 100 | 91.7
Cc1cccc2[nH]c3c(c(O)cc4[nH]c5cccc(C)c5c(=O)c43)c(=O)c12 | > 10 | > 10 | > 10 | > 10 | > 10 | > 10 | > 10

SMILES | TGI (MOLT-4 leukemia) [µM] | TGI (NCI-H226 lung) [µM] | TGI (NCI/ADR-RES ovarian) [µM] | TGI (SK-MEL-5 melanoma) [µM] | TGI (T-47D breast) [µM] | TGI (TK-10 renal) [µM] | TGI (NCI-H522 lung) [µM]
C[C@H]1C2Cc3cc(O)ccc3[C@@]1(C)CCN2CCc1ccc(N)cc1 | > 100 | > 100 | 63.2 | 27.5 | > 100 | > 100 | 36.2
C1CCCCC2(CCCCCCCCC3(CCC1)SCCS3)SCCS2 | – | > 100 | > 100 | > 100 | > 100 | > 100 | > 100
CCC(C)C(N)C(=O)N/N=C\c1c2c(nc3ccccc13)-c1cc3c(c(=O)n1C2)COC(=O)[C@]3(O)CC (stereo not given in full) | 1.86 | 1.66 | – | 0.452 | 0.188 | > 100 | 3.23
CC12CC(=O)Nc3ccccc3N1C(c1ccccc1)=NO2 (stereo not given) | > 100 | > 100 | > 100 | > 100 | – | > 100 | > 100
COc1cc(C2c3cc4c(cc3OC(NNS(=O)(=O)c3ccc(C)cc3)C2C)OCO4)cc(OC)c1OC (stereo not given) | > 100 | 13.2 | > 100 | 25 | > 100 | > 79 | 4.87
C[C@@H](C[C@H]1OC(C)(C)O[C@@H]1C(C)(C)O)[C@H]1CC=C2[C@]3(C)[C@H](O)C[C@H]4C(C)(C)[C@H](O)CC[C@]4(C)[C@H]3CC[C@]21C | 14.7 | 20.6 | 21.9 | 18.3 | 43.2 | 17.8 | 20.9
Cn1c(=Nc2ccc(Cl)cc2)sc2ccccc21 | > 100 | > 100 | > 100 | > 100 | > 100 | 98.1 | 35
COc1c2c(nc3ccccc13)-c1cc(C(CC(=O)OC(C)(C)C)C(=O)OC(C)C)c(CO)c(=O)n1C2 (stereo not given) | > 100 | > 100 | > 100 | > 100 | > 100 | > 100 | > 100
CC(=O)C(C(=O)c1ccc(C)cc1)[C@H]1OC(C)(C)O[C@H]1[C@H]1COC(C)(C)O1 (stereo not given in full) | > 50 | 29.2 | > 50 | 12.2 | 18.9 | 14.5 | 14.2
CO/N=C\c1ccc2c(c1)Sc1ccccc1O2 | > 100 | > 100 | > 100 | – | > 100 | > 100 | –
CC(C)(C)C(=O)Oc1ccc(/C=C/C(=O)c2ccc(OC(=O)C(C)(C)C)cc2)cc1 | 53.2 | > 100 | > 100 | > 100 | > 100 | > 100 | 8.78
N#CC1=C(N)N(/N=C/c2ccccc2)C(c2ccccc2)C1(C#N)C#N (stereo not given) | 5.5 | 37.2 | 54.2 | 30.9 | 24.4 | 16.7 | 16.6
CC1(C)OCC(C2OC3OC(C)(C)OC3C2c2ccccc2)O1 (stereo not given) | > 100 | 93.6 | > 100 | 33.2 | > 100 | > 100 | > 100
Nc1nccc(NCC2(CO)CC(OCc3ccccc3)C2)n1 (stereo not given) | > 100 | > 100 | > 100 | > 100 | 36.2 | – | > 100
COc1cc(C(=O)Oc2c(C(C)=O)sc3c2c(=O)n(-c2ccccc2)c(=S)n3-c2ccccc2)cc(OC)c1OC | 50.5 | 25.9 | 43.5 | 32.1 | 99.6 | > 100 | 4.53
COc1cc(/C=N/N=C(\N)NO)cc(OC)c1OC | > 100 | 73.8 | 36.3 | 44.7 | > 100 | > 100 | 80.6
O=C(Cn1cc(Br)c(=O)[nH]c1=O)c1ccc(-c2ccccc2)cc1 | > 27.5 | > 100 | > 100 | > 29.9 | > 100 | > 100 | > 13.9
N#Cc1c(Cl)c2cccnc2n2c1nc1ccccc12 | 6.15 | 9.58 | 6.55 | 2.6 | 4.79 | 3.09 | 2.68
Cc1ccc(O)c(C2=CC3=NNC(=O)C3C(c3cccc(Cl)c3)C2)c1 (stereo not given) | > 100 | – | > 100 | > 100 | > 100 | 57.5 | –

SMILES | TGI (MOLT-4 leukemia) [µM] | TGI (NCI-H226 lung) [µM] | TGI (NCI/ADR-RES ovarian) [µM] | TGI (SK-MEL-5 melanoma) [µM] | TGI (T-47D breast) [µM] | TGI (TK-10 renal) [µM] | TGI (NCI-H522 lung) [µM]
FC(F)(F)c1ccc2c(c1)nc1n2C(c2c(Cl)cccc2Cl)SC1 (stereo not given) | > 100 | 58.2 | 58.9 | – | 47.4 | 47 | 51.9
O=c1[nH]nc(Cc2ccccc2)n1/N=C/c1ccco1 | > 100 | > 100 | > 100 | – | > 100 | – | –
CCOC(=O)C(=CNc1ccc(N(C2=NCC(C)S2)c2ccc(F)c(Cl)c2)cc1)C(=O)OCC (stereo not given) | 41.6 | 36.6 | 33.7 | 36.7 | 49.5 | 57.1 | 30.3
COc1ccc(-c2c(-c3ccccc3)c(C)c3ccccn23)cc1 | > 100 | > 100 | > 100 | > 100 | > 100 | > 100 | > 100
COc1ccc2cc(CNCCCCCCCCNCc3ccc4cc(OC)ccc4c3)ccc2c1 | 7.5 | > 100 | > 100 | > 100 | 91 | 5.2 | 69.4
Cc1ccc(S(=O)C[C@](NC(=O)OCc2ccccc2)(Sc2ccccc2)C(F)F)cc1 (stereo not given in full) | 22.2 | 32.4 | 54.6 | 28 | 40 | 42.6 | 22.4
O=C1/C(=C\c2ccc(Br)cc2)CCCc2ccccc21 | 58.5 | 28.6 | 27.2 | – | 50.6 | 35.4 | –
COC(=O)CCC1(CCC(=O)OC)CCCCCCC(CCC(=O)OC)(CCC(=O)OC)C(=O)C1=O | – | > 100 | > 100 | > 100 | > 100 | > 100 | > 100
c1ccc2cc3c(NC4=NCCO4)cccc3cc2c1 | > 100 | > 100 | > 100 | > 100 | – | > 100 | > 100
O=c1[nH]ncc2[nH]c3c4ccccc4ccc3c12 | > 100 | – | > 100 | > 100 | > 100 | > 100 | 66.6
CCCCc1ccc(-n2sc3ncc(-c4ccccc4)cc3c2=O)cc1 | > 100 | > 100 | > 100 | > 100 | 69.5 | > 100 | –
Oc1ccc(/C=C/c2cccc(/C=C/c3ccc(O)c(O)c3)n2)cc1O | 17.8 | – | 26.7 | 15.8 | 7.06 | 23.6 | –
N#CCCN(CCC#N)c1ccc(/C=C2\N=C(c3ccccc3)N(c3ccc(C(=O)O)cc3)C2=O)cc1 | – | 95.5 | > 100 | > 100 | > 100 | > 100 | –
Cc1ccc(S(=O)(=O)CNC(=O)C(O)(O)C(F)(F)F)cc1 | > 100 | – | > 100 | > 100 | > 100 | > 100 | > 100
O=C(O)c1nc2ccc(C(F)(F)F)cc2nc1Nc1ccc(Cl)c(Cl)c1 | 17.3 | 24.9 | 19.7 | 23.7 | – | > 100 | 15.2
N#Cc1c(=O)c2ccccc2n2ccccc12 | – | > 100 | > 100 | > 100 | > 100 | > 100 | > 100
CC[C@@H](CCCCC1CC[C@H]2CC(=O)C[C@@H]12)OC (stereo not given in full) | > 100 | > 100 | > 100 | > 100 | – | > 100 | > 100
CC(O)c1cc2c(s1)C(=O)c1c(C(C)O)csc1C2=O (stereo not given) | – | 0.959 | 0.593 | 0.0716 | 0.667 | 1.79 | 1.13
